Assay results as given in the supplement of paper PMC10933113.
Where a name gives a salt, the structure may show the parent alone. ± gives the uncertainty stated by the source.

Legend:
THP-1 [1] = test: AC50 of IL-8 secretion induction; higher = less potent; settings: exposure time: 18 h
[2] = test system: KeratinoSens (HaCaT ARE-luciferase) cells; test: AC50 of Nrf2/ARE luciferase induction; higher = less potent; settings: exposure time: 24 h
THP-1 [3] = test: efficacy of IL-8 induction relative to DMSO (% activity); higher = stronger induction; settings: exposure time: 18 h
[4] = test system: lysine peptide Ac-RFAAKAA-COOH; test: efficacy of lysine peptide change (negative = depletion) (% activity); higher = less depletion; settings: incubation time: 24 h
[5] = test system: cysteine peptide Ac-RFAACAA-COOH; test: efficacy of cysteine peptide change (negative = depletion) (% activity); higher = less depletion; settings: incubation time: 24 h
[6] = test system: KeratinoSens (HaCaT ARE-luciferase) cells; test: efficacy of ARE luciferase induction relative to DMSO (% activity over DMSO); higher = stronger induction; settings: exposure time: 24 h
[7] = test system: cysteine peptide Ac-RFAACAA-COOH; test: AC50 of cysteine peptide concentration-response (direction given by sign of efficacy); higher = less potent; settings: incubation time: 24 h
[8] = test system: KeratinoSens (HaCaT ARE-luciferase) cells; test: cytotoxicity AC50 (CellTiter-Fluor viability); higher = less cytotoxic; settings: exposure time: 24 h

| efficacy of lysine peptide change [4] | efficacy of cysteine peptide change [5] | AC50 [7] [µM] | SMILES | AC50 of IL-8 secretion induction (THP-1 [1]) [µM] | AC50 of Nrf2/ARE luciferase induction [2] [µM] | efficacy of IL-8 induction (THP-1 [3]) | efficacy of ARE luciferase induction [6] | cytotoxicity AC50 [8] [µM] |
| --- | --- | --- | --- | --- | --- | --- | --- | --- |
| 40.3 ± 17 | -86.4 ± 10 | 32.9 ± 2.2 | Sc1nc2ccccc2s1 [2-Mercaptobenzothiazole] | 28.3 | 20.7 | 21.3 ± 41 | 87.1 ± 23 | – |
| -0.97 ± 8.8 | -98.5 ± 3.1 | 2.42 ± 0.16 | Cn1sccc1=O [2-Methyl-4-isothiazolin-3-one hydrochloride] | 35.9 | 13.7 | 50.4 ± 5.3 | 118 ± 32 | 25.2 ± 2.9 |
| -11.6 ± 10 | -94.7 ± 2.8 | 1.04 ± 0.07 | c1csc(SSc2cccs2)c1 [2-Thienyl disulfide] | 82.7 | 33.5 | 81.3 ± 8.7 | 126 ± 80 | 41.4 ± 2.8 |
| – | – | – | c1cc(N(CC2CO2)CC2CO2)ccc1Cc1ccc(N(CC2CO2)CC2CO2)cc1 (stereo not drawn) [4,4'-Methylenebis(N,N-diglycidylaniline)] | 37.1 | 15.8 | 103 ± 16 | 57 ± 38 | 35.5 |
| 6.9 ± 7.1 | 4.3 ± 7.4 | – | Nc1ncn([C@@H]2O[C@H](CO)[C@@H](O)[C@H]2O)c(=O)n1 [5-Azacytidine] | 41.6 | 18.9 | 55 ± 5.8 | 275 ± 140 | 17.8 ± 6.3 |
| -8.28 ± 7.3 | -68.8 ± 8.1 | 1.52 ± 0.89 | Oc1c(I)cc(Cl)c2cccnc12 [Clioquinol] | 21.6 | 6.33 | 125 ± 14 | 87.3 ± 32 | 10.4 ± 1.3 |
| 15.9 ± 15 | -50.1 ± 12 | 0.87 ± 0.35 | COc1cc(/C=C2\CCC/C(=C\c3ccc(O)c(OC)c3)C2=O)ccc1O [Cyclovalone] | 40 | 15.8 | 44.5 ± 6.9 | 242 ± 83 | 22.5 ± 2.6 |
| -13.8 ± 13 | -22.9 ± 5.9 | – | O=C1c2ccccc2C(=O)C1c1ccc2ccccc2n1 [D & C Yellow II] | 38.4 | 11.6 | 71.4 ± 9.3 | 68.8 ± 34 | 28.2 |
| 0.82 ± 8.5 | 8.44 ± 17 | – | CCC1OCC(COc2ccc(Oc3ccccc3)cc2)O1 (stereo not drawn) [Diofenolan] | 34.2 | 13.7 | 113 ± 5.8 | 138 ± 84 | 24.4 ± 4.2 |
| 0 | -88.7 ± 16 | – | CC(C)=CCC1C(=O)N(c2ccccc2)N(c2ccccc2)C1=O [Feprazone] | 85.9 | 46 | 60.5 ± 9.2 | 281 ± 320 | 40 ± 4.6 |
| 36.4 ± 15 | -94.9 ± 1.7 | 4.18 ± 2 | CN(C)c1ccc(C(=C2C=CC(=[N+](C)C)C=C2)c2ccccc2)cc1 [Malachite green oxalate*] | 15.3 | – | 47.7 ± 7.8 | -37.3 ± 7.1 | 8.91 |
| -31.7 ± 10 | -105 ± 8.6 | 5.39 ± 1.6 | N=C(N)NN=C(/C=C/c1ccc([N+](=O)[O-])o1)/C=C/c1ccc([N+](=O)[O-])o1 [Nitrovin] | 11.6 | – | 63.3 ± 30 | 46.8 ± 140 | 6.97 ± 1.7 |
| 56 ± 8.1 | -4.47 ± 11 | – | CCCCc1ccc2[nH]c(NC(=O)OC)nc2c1 [Parbendazole*] | 38.4 | 21.1 | 77.1 ± 5.2 | 66.8 ± 26 | 5.79 ± 1.6 |
| 115 ± 4.9 | 88.8 ± 300 | 11.9 ± 20 | Nc1ccc2cc3ccc(N)cc3nc2c1 [Proflavin hemisulfate#] | 35.5 | 7.94 | 68 ± 3.1 | 390 ± 270 | – |
| -0.22 ± 12 | -90.5 ± 5.6 | 0.65 ± 0.18 | O=c1[nH]sc2cc(Cl)ccc12 [Ticlatone] | 21.6 | – | 92.2 ± 7.7 | 55.4 ± 80 | 13.2 ± 2.4 |
| 35 ± 20 | -3.96 ± 6.9 | – | O=c1n(CC2CO2)c(=O)n(CC2CO2)c(=O)n1CC1CO1 (stereo not drawn) [Triglycidyl isocyanurate] | 36.9 | 14.1 | 157 ± 24 | 90.3 ± 20 | 28.3 ± 3.2 |
| -30.8 ± 9.1 | -112 ± 5.2 | 34.8 ± 13 | CC(C)(C)c1cc(O)ccc1O [tert-Butylhydroquinone] | 39.8 | 33 | 114 ± 90 | 293 ± 55 | – |

| SMILES | efficacy of lysine peptide change [4] | efficacy of cysteine peptide change [5] | AC50 [7] [µM] | AC50 of IL-8 secretion induction (THP-1 [1]) [µM] | AC50 of Nrf2/ARE luciferase induction [2] [µM] | efficacy of IL-8 induction (THP-1 [3]) | efficacy of ARE luciferase induction [6] | cytotoxicity AC50 [8] [µM] |
| --- | --- | --- | --- | --- | --- | --- | --- | --- |
| c1cc(N(CC2CO2)CC2CO2)ccc1OCC1CO1 (stereo not drawn) [4-(Diglycidylamino)phenyl glycidyl ether] | 41.8 ± 1.5 | -36.5 ± 12 | 20.3 ± 16 | 76.9 | 32.9 | 62.3 ± 18 | 103 ± 58 | 63.9 ± 12 |
| CN(C)c1ccc(N(C)C)cc1 [*N,N,N',N'-Tetramethyl-p-phenylenediamine] | -28.7 ± 13 | -93.1 ± 3.4 | 3.26 ± 0.91 | 76.5 | 20.9 | 130 ± 7.7 | 98.6 ± 34 | 57 ± 12 |
| S=C=NCc1ccccc1 [BENZYL ISOTHIOCYANATE] | 19.8 ± 9.3 | -57.9 ± 6.4 | 34.2 ± 2.2 | 11.4 | 24.8 | 40.8 ± 25 | 278 ± 170 | – |
| CCS(=O)(=O)CCSP(=O)(OC)OC [Demeton-S-methylsulphon] | -8 ± 20 | -43.5 ± 12 | – | 30.7 | 19 | 108 ± 5.1 | 28.1 ± 59 | 22.5 ± 2.6 |
| c1coc(-c2nc3ccccc3[nH]2)c1 [Fuberidazole] | -20.8 ± 15 | -100 ± 9.1 | 12.3 ± 4.7 | 48.3 | 32 | 78.3 ± 0.93 | 96.2 ± 26 | 38.7 ± 6.6 |
| CC(C)CC(C)Nc1ccc(Nc2ccccc2)cc1 (stereo not drawn) [N-(1,3-Dimethylbutyl)-N'-phenyl-p-phenylenediamine] | 2.97 ± 5.1 | -77.3 ± 10 | 0.88 ± 0.99 | 32.9 | 26.4 | 29.6 ± 1.7 | 148 ± 100 | 38.5 ± 5.3 |
| C[C@@H]1O[C@@H](O[C@H]2C[C@@H](O)[C@]3(CO)[C@H]4[C@H](O)C[C@]5(C)[C@@H](C6=CC(=O)OC6)CC[C@]5(O)[C@@H]4CC[C@]3(O)C2)[C@H](O)[C@H](O)[C@H]1O [Ouabain] | 6.65 ± 12 | 3.17 ± 11 | – | 2.99 | 0.96 | 35.4 ± 9.9 | 220 ± 65 | 1.58 |
| CC(C)OC(=S)S [Proxan-sodium] | 10.8 ± 20 | -94.2 ± 20 | 73.6 ± 37 | 35.9 | – | 59.9 ± 7.8 | 59.5 ± 100 | 37.3 ± 6.7 |
| CC(C)CP(=S)(S)CC(C)C [Sodium bis(2-methylpropyl)phosphinodithioate] | 108 ± 18 | -92.6 ± 1.4 | 76.5 ± 25 | 38.4 | – | 82.4 ± 10 | 168 ± 27 | 21.1 ± 9.9 |
